Results published in ChEMBL document CHEMBL3627615, “Discovery of the disubstituted oxazole analogues as a novel class anti-tuberculotic agents against MDR- and XDR-MTB” (Bioorg Med Chem Lett, 2015).
≈ marks a conversion by molar mass, not a printed value.

Columns and labels:
[1] = system: Mycobacterium tuberculosis; assay: Antimycobacterial activity against multidrug-resistant Mycobacterium tuberculosis FJ05120 after 3 to 4 weeks by microplate alamar blue assay; format: functional
[2] = system: Mycobacterium tuberculosis; assay: Antimycobacterial activity against extensively drug-resistant Mycobacterium tuberculosis FJ05195 after 3 to 4 weeks by microplate alamar blue assay; format: functional

| SMILES | MIC90 [1] [µg/mL] | MIC90 [2] [µg/mL] |
| --- | --- | --- |
| O=C(c1ccc2c(c1)OCCO2)C1CCN(Cc2coc(-c3ccc(F)c(F)c3)n2)CC1 | 8 (≈ 18.2 µM) | 8 (≈ 18.2 µM) |
| O=C(c1ccc(F)c(F)c1)C1CCN(Cc2coc(-c3ccc(F)cc3)n2)CC1 | 8 (≈ 20 µM) | 8 (≈ 20 µM) |
| CC[C@@H](CO)NCCN[C@@H](CC)CO [ETHAMBUTOL] | 1 (≈ 4.89 µM) | 8 (≈ 39.2 µM) |
| O=C(c1ccc2c(c1)OCCO2)C1CCN(Cc2coc(-c3ccc(F)cc3)n2)CC1 | 8 (≈ 18.9 µM) | 8 (≈ 18.9 µM) |
| COc1ccc(C(=O)C2CCN(Cc3coc(-c4ccc(F)cc4)n3)CC2)cc1 | 8 (≈ 20.3 µM) | 8 (≈ 20.3 µM) |
| O=C(c1ccc2c(c1)OCCO2)C1CCN(Cc2coc(-c3ccccc3F)n2)CC1 | 16 (≈ 37.9 µM) | 8 (≈ 18.9 µM) |
| COc1ccc(-c2nc(CN3CCC(C(=O)c4ccc5c(c4)OCCO5)CC3)co2)cc1 | 8 (≈ 18.4 µM) | 4 (≈ 9.21 µM) |
| O=C(c1ccc2c(c1)OCCO2)C1CCN(Cc2cc(-c3ccc(F)cc3)on2)CC1 | > 128 | > 128 |
| O=C(c1ccc2c(c1)CCCC2)C1CCN(Cc2coc(-c3ccc(F)cc3)n2)CC1 | 4 (≈ 9.56 µM) | 4 (≈ 9.56 µM) |
| O=C(c1ccc2c(c1)OCCO2)C1CCN(Cc2coc(-c3cccc(F)c3)n2)CC1 | 16 (≈ 37.9 µM) | 8 (≈ 18.9 µM) |
| O=C(c1ccc2c(c1)OCCO2)C1CCN(Cc2coc(-c3ccco3)n2)CC1 | 32 (≈ 81.1 µM) | 32 (≈ 81.1 µM) |
| O=C(c1ccc2c(c1)OCCO2)C1CCN(Cc2coc(-c3ccoc3)n2)CC1 | 32 (≈ 81.1 µM) | 64 (≈ 162 µM) |
| Cc1ccc(-c2nc(CN3CCC(C(=O)c4ccc5c(c4)OCCO5)CC3)co2)cc1 | 64 (≈ 153 µM) | 64 (≈ 153 µM) |
| CC(C)(C)c1ccc(-c2nc(CN3CCC(C(=O)c4ccc5c(c4)CCCC5)CC3)co2)cc1 | 4 (≈ 8.76 µM) | 4 (≈ 8.76 µM) |
| COc1ccc(C(=O)C2CCN(Cc3coc(-c4ccc(F)cc4)n3)CC2)cc1OC | 16 (≈ 37.7 µM) | 16 (≈ 37.7 µM) |
| Cc1ccc(C(=O)C2CCN(Cc3coc(-c4ccc(F)cc4)n3)CC2)cc1 | 16 (≈ 42.3 µM) | 8 (≈ 21.1 µM) |
| O=C(c1ccccc1)C1CCN(Cc2coc(-c3ccc(F)cc3)n2)CC1 | 4 (≈ 11 µM) | 4 (≈ 11 µM) |
| O=C(c1ccc2c(c1)OCCO2)C1CCN(Cc2coc(-c3cccnc3)n2)CC1 | 32 (≈ 78.9 µM) | 32 (≈ 78.9 µM) |
| CC(C)(C)c1ccc(-c2nc(CN3CCC(C(=O)c4ccc5c(c4)OCCO5)CC3)cs2)cc1 | > 128 | > 128 |
| CN[C@@H]1[C@H](O[C@H]2[C@H](O[C@H]3[C@H](O)[C@@H](O)[C@H](N=C(N)N)[C@@H](O)[C@@H]3N=C(N)N)O[C@@H](C)[C@]2(O)C=O)O[C@@H](CO)[C@H](O)[C@H]1O [STREPTOMYCIN] | < 0.5 | 64 (≈ 110 µM) |
| CO[C@H]1/C=C/O[C@@]2(C)Oc3c(C)c(O)c4c(O)c(c(/C=N/N5CCN(C)CC5)c(O)c4c3C2=O)NC(=O)/C(C)=C\C=C\[C@H](C)[C@H](O)[C@@H](C)[C@@H](O)[C@@H](C)[C@H](OC(C)=O)[C@@H]1C [RIFAMPIN] | > 256 | > 256 |
| Cc1ccc(C(=O)C2CCN(Cc3coc(-c4ccc(F)cc4)n3)CC2)cc1C | 8 (≈ 20.4 µM) | 8 (≈ 20.4 µM) |
| O=C(c1ccc2c(c1)OCCO2)C1CCN(Cc2coc(-c3ccc(Br)cc3)n2)CC1 | 8 (≈ 16.6 µM) | 8 (≈ 16.6 µM) |
| NNC(=O)c1ccncc1 [ISONIAZID] | 1 (≈ 7.29 µM) | 4 (≈ 29.2 µM) |
| O=C(c1ccc2c(c1)OCCO2)C1CCN(Cc2coc(-c3ccccc3)n2)CC1 | 8 (≈ 19.8 µM) | 8 (≈ 19.8 µM) |
| O=C(c1ccc2c(c1)OCCO2)C1CCN(Cc2coc(-c3ccc(Cl)cc3)n2)CC1 | 8 (≈ 18.2 µM) | 4 (≈ 9.11 µM) |
| O=C(c1ccc2c(c1)OCCO2)C1CCN(Cc2csc(-c3ccc(Cl)cc3)n2)CC1 | > 128 | > 128 |
| CC(C)(C)c1ccc(-c2nc(CN3CCC(C(=O)c4ccc5c(c4)OCCO5)CC3)co2)cc1 | 2 (≈ 4.34 µM) | 1 (≈ 2.17 µM) |
| O=C(c1ccc2c(c1)OCCO2)C1CCN(Cc2coc(-c3ccc(C(F)(F)F)cc3)n2)CC1 | 64 (≈ 135 µM) | 64 (≈ 135 µM) |
